Measurements as given in PubChem BioAssay (NCI).
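All cell lines were grown in 96-well plates and treated with compound for 48 hours. GI50 marks 50% less growth. TGI denotes the concentration required for complete inhibition of growth.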

How the values were obtained:
Assay in all cases: NCI anticancer screen, dose series, 48 h
[1] = system: HCC-2998 colon
[2] = system: SNB-75 CNS
[3] = system: LOX IMVI melanoma
[4] = system: OVCAR-8 ovarian
[5] = system: SF-268 CNS
[6] = system: HCT-15 colon
[7] = system: NCI-H522 lung
[8] = system: COLO 205 colon
[9] = system: OVCAR-4 ovarian
[10] = system: SR leukemia

## O=C(Nc1cccc(NC(=O)Nc2cc(C(F)(F)F)ccc2Cl)c1)Nc1cc(C(F)(F)F)ccc1Cl
[1]
  GI50: 6.72 µM
  TGI: > 100 µM
[2]
  GI50: 1.56 µM
  TGI: 4.51 µM
[3]
  GI50: 3.47 µM
  TGI: 15.4 µM
[4]
  GI50: 2.05 µM
  TGI: 15.7 µM
[5]
  GI50: 5.19 µM
  TGI: 34.2 µM
[6]
  GI50: 0.566 µM
  TGI: > 100 µM
[7]
  GI50: 1.21 µM
  TGI: 7.78 µM
[8]
  GI50: 3.44 µM
  TGI: > 100 µM
[9]
  GI50: 0.746 µM
  TGI: 3.61 µM

## Cc1ccc(N2C(=O)C3C=CC(n4[nH]c(=O)n(Cc5ccccc5)c4=O)CC3C2=O)cc1 (centres undefined)
[1]
  TGI: > 100 µM
[10]
  TGI: > 100 µM
[2]
  TGI: > 100 µM
[3]
  TGI: > 100 µM
[4]
  TGI: > 100 µM
[5]
  TGI: > 100 µM
[6]
  TGI: > 100 µM
[7]
  TGI: > 100 µM
[8]
  TGI: > 100 µM

## CCc1cccc(C)c1NC(=O)C(=O)Cc1nc2ccccc2s1
[1]
  TGI: > 100 µM
[10]
  TGI: > 100 µM
[2]
  TGI: > 100 µM
[4]
  TGI: > 100 µM
[5]
  TGI: > 100 µM
[7]
  TGI: > 100 µM
[8]
  TGI: > 100 µM
[9]
  TGI: > 100 µM

## C[C@]12CC[C@H]3[C@@H](CC[C@]4(O)C[C@@H](O)CC[C@]34/C=N/O)[C@@]1(O)CC[C@@H]2C1=COC(=O)C1
[1]
  TGI: 0.687 µM
[2]
  TGI: 4.44 µM
[3]
  TGI: 0.489 µM
[4]
  TGI: 0.458 µM
[5]
  TGI: 0.331 µM
[6]
  TGI: 0.45 µM
[7]
  TGI: 0.371 µM
[8]
  TGI: 1.33 µM
[9]
  TGI: 0.279 µM

## O=S1(=O)OCCOS(=O)(=O)C1Cc1ccccc1
[1]
  TGI: 45.4 µM
[10]
  TGI: > 100 µM
[2]
  TGI: > 100 µM
[3]
  TGI: > 100 µM
[4]
  TGI: > 100 µM
[5]
  TGI: > 100 µM
[7]
  TGI: > 100 µM
[8]
  TGI: 34.8 µM
[9]
  TGI: > 100 µM

## COC(=O)C1=C(c2cc(OC)c(OC)c(OC)c2)OC(c2ccc(OC)c(OC)c2)C1 (centres undefined)
[1]
  TGI: > 100 µM
[10]
  TGI: > 100 µM
[2]
  TGI: > 100 µM
[3]
  TGI: > 100 µM
[4]
  TGI: > 100 µM
[5]
  TGI: > 100 µM
[6]
  TGI: > 100 µM
[8]
  TGI: 42.6 µM
[9]
  TGI: > 100 µM

## CC(=O)C1C(=O)C(=O)N(c2ccccc2C(C)C)C1=O (centres undefined)
[1]
  TGI: > 100 µM
[2]
  TGI: > 100 µM
[3]
  TGI: > 100 µM
[4]
  TGI: > 100 µM
[5]
  TGI: > 100 µM
[6]
  TGI: > 100 µM
[7]
  TGI: > 100 µM
[8]
  TGI: > 100 µM
[9]
  TGI: > 100 µM

## COc1ccc(OC)c2c1C(=O)C1CC1(Br)C2=O (centres undefined)
[1]
  TGI: > 100 µM
[3]
  TGI: > 100 µM
[4]
  TGI: > 100 µM
[5]
  TGI: > 100 µM
[6]
  TGI: > 100 µM
[7]
  TGI: > 100 µM
[8]
  TGI: > 100 µM
[9]
  TGI: > 100 µM

## COC(=O)C1=CC2C(=O)OC1CC2C#N (centres undefined)
[1]
  TGI: > 100 µM
[10]
  TGI: > 100 µM
[2]
  TGI: > 100 µM
[3]
  TGI: > 100 µM
[4]
  TGI: > 100 µM
[5]
  TGI: > 100 µM
[7]
  TGI: > 100 µM
[8]
  TGI: > 100 µM
[9]
  TGI: > 100 µM

## O=C1c2ccccc2-c2c1c1ccccc1c(=O)n2CCN1CCOCC1
[1]
  GI50: 42.5 µM
  TGI: > 100 µM
[2]
  GI50: > 100 µM
  TGI: > 100 µM
[3]
  GI50: 40.5 µM
  TGI: > 100 µM
[4]
  GI50: 60.6 µM
  TGI: > 100 µM
[5]
  GI50: > 100 µM
  TGI: > 100 µM
[6]
  GI50: 78.5 µM
  TGI: > 100 µM
[7]
  GI50: 39.5 µM
  TGI: > 100 µM
[8]
  GI50: > 100 µM
  TGI: > 100 µM
[9]
  GI50: > 100 µM
  TGI: > 100 µM

## C[CH2][Sn]([CH2]C)([O]C(=O)C(OC(C)=O)c1ccccc1)[O]C(=O)C(OC(C)=O)c1ccccc1 (centres undefined)
[10]
  GI50: 24.3 µM
  TGI: > 100 µM
[2]
  GI50: 31.9 µM
  TGI: 99.5 µM
[3]
  GI50: 18.2 µM
  TGI: 35.4 µM
[4]
  GI50: > 100 µM
  TGI: > 100 µM
[5]
  GI50: 16.6 µM
  TGI: 31.8 µM
[6]
  GI50: 25.7 µM
  TGI: 82.3 µM
[7]
  GI50: 1.58 µM
  TGI: 4.35 µM
[8]
  GI50: 23.3 µM
  TGI: 72.9 µM
[9]
  GI50: 50 µM
  TGI: > 100 µM

## C1CN(SSN2CCOCC2)CCO1
[1]
  GI50: > 100 µM
  TGI: > 100 µM
[10]
  GI50: 48.9 µM
  TGI: > 100 µM
[2]
  GI50: 44.1 µM
  TGI: > 100 µM
[4]
  GI50: 52.1 µM
  TGI: > 100 µM
[5]
  GI50: 47.6 µM
  TGI: > 100 µM
[6]
  GI50: 35.6 µM
  TGI: > 100 µM
[7]
  GI50: 22.2 µM
  TGI: 64.8 µM
[8]
  GI50: 25 µM
  TGI: 64 µM
[9]
  GI50: 39.6 µM
  TGI: > 100 µM

## COc1ccc2c(c1)C(=O)c1c-2c(N(C)C)nc2ccccc12
[1]
  GI50: > 100 µM
  TGI: > 100 µM
[2]
  GI50: 57.6 µM
  TGI: > 100 µM
[3]
  GI50: > 100 µM
  TGI: > 100 µM
[4]
  GI50: > 100 µM
  TGI: > 100 µM
[5]
  GI50: 77.8 µM
  TGI: > 100 µM
[6]
  GI50: > 100 µM
  TGI: > 100 µM
[7]
  GI50: > 100 µM
  TGI: > 100 µM
[8]
  GI50: > 100 µM
  TGI: > 100 µM
[9]
  GI50: 90.2 µM
  TGI: > 100 µM

## CC1=C(CO)C(=O)O[C@@H]([C@@H](C)[C@H]2CC[C@H]3[C@@H]4C[C@@H](O)[C@@]5(O)CC=CC(=O)[C@]5(C)[C@H]4CC[C@]23C)C1
[1]
  TGI: > 100 µM
[2]
  TGI: > 100 µM
[3]
  TGI: > 100 µM
[4]
  TGI: > 100 µM
[5]
  TGI: > 100 µM
[6]
  TGI: 32.5 µM
[7]
  TGI: 30.7 µM
[8]
  TGI: > 100 µM
[9]
  TGI: > 100 µM

## CCOC(=O)NC(=O)c1cn(CCN2CCN(c3ncnc4nc[nH]c34)CC2)c(=O)[nH]c1=O
[1]
  TGI: > 100 µM
[10]
  TGI: > 100 µM
[2]
  TGI: > 100 µM
[3]
  TGI: > 100 µM
[4]
  TGI: > 100 µM
[5]
  TGI: > 100 µM
[6]
  TGI: > 100 µM
[7]
  TGI: > 100 µM
[8]
  TGI: > 100 µM

## COc1ccc(C(=O)C(c2ccc(OC)cc2)C2(O)C(=O)Nc3c2ccc(Cl)c3C)cc1 (centres undefined)
[1]
  TGI: > 100 µM
[2]
  TGI: > 100 µM
[3]
  TGI: > 100 µM
[4]
  TGI: > 100 µM
[5]
  TGI: > 100 µM
[6]
  TGI: > 100 µM
[7]
  TGI: > 100 µM
[8]
  TGI: > 100 µM
[9]
  TGI: > 100 µM

## CCc1ccc(NC(=O)COC(=O)c2cc([N+](=O)[O-])ccc2Sc2nnnn2C)cc1
[1]
  GI50: 15.7 µM
  TGI: 29.2 µM
[10]
  GI50: 4.05 µM
  TGI: > 100 µM
[2]
  GI50: 13.1 µM
  TGI: 35 µM
[3]
  GI50: 6.75 µM
  TGI: 22 µM
[5]
  GI50: 14.5 µM
  TGI: 70.7 µM
[6]
  GI50: 13 µM
  TGI: 37.3 µM
[7]
  GI50: 11.5 µM
  TGI: 36.3 µM
[8]
  GI50: 16 µM
  TGI: 33.8 µM
[9]
  GI50: 12.9 µM
  TGI: 26.9 µM

## C1=C2/CC[C@H](Sc3ccccc3)[C@H]2C2(CCCCC/1)OCCO2
[1]
  TGI: 41.3 µM
[10]
  TGI: > 100 µM
[2]
  TGI: > 100 µM
[3]
  TGI: 39.5 µM
[4]
  TGI: > 100 µM
[5]
  TGI: > 100 µM
[6]
  TGI: > 100 µM
[7]
  TGI: 39.6 µM
[8]
  TGI: 38.2 µM
